The values that follow come from publication PMC6983054, “Toxicity and Antitumor Activity of a Thiophene–Acridine Hybrid” (Molecules, 2019).

Structures are written as SMILES. A value given as a limit tells only on which side of the number the result lay.

Data set [1] deals with HeLa (human cervical cancer cell line). Nature of the data set: MTT cytotoxicity assay, HeLa. Type of data set: cell-based. Conditions: 72 h. An excerpt: (§1) Colorectal carcinoma cells (HCT-116), chronic myelogenous leukemia (K562), and acute promyelocytic leukemia (HL-60) were generously provided by Dr. Manoel de Moraes (Federal University of Ceará, Fortaleza, Brazil) and cultured in Roswell Park Memorial Institute 1640 (RPMI 1640; Sigma Aldrich, St. Louis, MO, USA) medium supplemented with 10% fetal bovine serum (GIBCO, Grand Island, NY, USA) and 1% penicillin–streptomycin (Sigma Aldrich, St. Louis, MO, USA). […]
(§2) MTT (3-(4,5-dimethylthiazol-2-yl)-2,5-diphenyltetrazolium bromide) reduction assay was used to evaluate the cytotoxicity of ACS03 and its precursors (2-amino-5,6,7,8-tetrahydro-4H-cyclohepta[b]thiophene-3-carbonitrile and 6,9-dichloro-2-methoxyacridine) against tumor and non-tumor cell lines and PBMC. […] The optical density was measured using a microplate spectrophotometer reader (Microplate reader BioTek Instruments, Sinergy HT, Winooski, VT, USA) at λ = 570 nm and used to calculate the IC50 (half maximal inhibitory concentration).

A further data set relates to Leishmania. Also on record: method as in PMID 29415325. As to conditions: cited from earlier work.
The subject of data set [2] is K562 (chronic myeloid leukemic cell line). Nature of the data set: MTT cytotoxicity assay, K562. Type of data set: cell-based. As to conditions: Homo sapiens, 72 h.
Source text: as §1, §2

In data set [3] the test system is peripheral blood mononuclear cells (PBMC). Nature of the data set: MTT cytotoxicity assay, PBMC. Type of data set: cell-based. As to conditions: Homo sapiens, 72 h. As for the experimental part: Heparinized blood was collected from healthy donors, and the PBMC were isolated by a standard method of density-gradient centrifugation using Ficoll-Histopaque (Sigma Aldrich, St. Louis, MO, USA). PBMC were cultivated in RPMI-1640 medium supplemented with 10% fetal bovine serum, 1% penicillin–streptomycin, and 2% phytohaemagglutinin. Cells were kept at 37 °C with 5% CO2 for 24 h before the start of the experiment. This study was approved by the Ethics Committee of the Human Health Sciences Center Research (CCS), UFPB (CAAE: 22986519.0.0000.5188), Brazil.
as §2, with “PBMC. For the MTT assay, cell lines (3 × 10^5 cells/mL) and PBMC (1 × 10^6 cells/mL) were seeded on 96-well plates and cultured for 24 h. ACS03 (3.125–200 µM) was added to the cell cultures and incubated for 72 h.” for “PBMC.”

Data set [4] is described as follows: Acute preclinical toxicity in mice (OECD 423). Conditions: female, Swiss albino, mouse, in vivo, ip, estimated, OECD 423, read-out: LD50 (lethal dose 50%). Type of data set: in vivo, mice (Mus musculus). As for the experimental part: (§3) Female Swiss albino mice (Mus musculus) weighing between 28 and 32 g, with an approximate age of 60 days and obtained from the Dr. Thomas George Bioterium (Research Institute in Drugs and Medicines/Federal University of Paraíba, Paraíba, Brazil) were used. The animals were grouped in polyethylene cages containing six animals, with free access to food (Purina® feed pellets, St. Louis, MO, USA) and water. The animals were kept under controlled conditions (21 ± 1 °C, 12 h/12 h off light/dark cycle). All experiments were approved by the Committee on Ethical Use of Animals in Research (CEUA) of Federal University of Paraíba, Brazil, certified by number 093/2017.
(§4) The acute toxicity test in mice was performed according to the Guideline for Testing of Chemicals no. 423 of the Organization for Economic Co-operation and Development (OECD). Mice were divided into different groups (n = 3 females/group). The control group received vehicle alone (12% (v/v) Tween 80 in saline), and ACS03 was tested in single doses of 300 or 2000 mg/kg, intraperitoneally (i.p.). The dose responsible for the death of 50% of the experimental animals (LD50) was estimated.

A further data set deals with Swiss albino mice. Nature of the data set: Acute preclinical toxicity in mice (OECD 423). Type of data set: in vivo, mice (Mus musculus). The procedure:
as §3, §4

The subject of data set [5] is HL-60 (human promyelocytic leukemia cell line). Nature of the data set: MTT cytotoxicity assay, HL-60. Type of data set: cell-based. As to conditions: HL-60, MTT, 72 h.
Source text: as §1, §2

The subject of the next data set is nitrite (nitric oxide). Nature of the data set: Nitrite levels in ascitic fluid, Ehrlich ascites carcinoma model (Griess). Type of data set: in vivo, mice (Mus musculus). As to conditions: peritoneal fluid, 12.5 mg/kg; control 36.09 ± 0.72 µM. The procedure: The nitrite concentration in the ascitic fluid was measured using Griess reagent. For this, the peritoneal fluid of control and treated animals (12.5 mg/kg ACS03 and 25 mg/kg 5-FU) was used. The optical density was measured using a microplate spectrophotometer reader (Microplate reader BioTek Instruments, Sinergy HT, Winooski, VT, USA) at λ = 560 nm. Concentrations of nitrite were calculated from a standard curve previously established with known molar concentrations of sodium nitrite. The tests were done in quadruplicate and the values expressed in µM [51].

Data set [6] has as its system AChE (Acetylcholinesterase). Nature of the data set: AChE activity in zebrafish larvae. Type of data set: in vivo, zebrafish (Danio rerio). As to conditions: 96 h, control 66.35 ± 0.04. As for the experimental part:
The FET test was repeated for ACS03 under the same conditions described above, but this time the embryos were independently exposed to three concentrations (10, 20, and 40 µM). At the end of the exposure period (96 h), the larvae were quickly frozen in a ratio of 1 larva per 100 µL of 0.1 M sodium phosphate buffer, pH 7.4.
Larval groups from each of the three tested concentrations and a negative control group (exposed to E3 medium only) were macerated using 1:9 (w/v) cold 0.9% NaCl solution. The homogenates were centrifuged at 10,000× g for 10 min at 4 °C, and the resulting supernatants were used for the measurement of soluble protein content and enzyme activity. The activities of acetylcholinesterase (AChE), glutathione S-transferase (GST), and lactate dehydrogenase (LDH) were measured according to Domingues et al. (2010). Tests were done in quadruplicate for each enzyme.

Regarding `COc1ccc2nc3cc(Cl)ccc3c(Nc3sc4c(c3C#N)CCCCC4)c2c1` [ACS03, 2-((6-Chloro-2-methoxyacridin-9-yl)amino)-5,6,7,8-tetrahydro-4H-cyclohepta[b]-thiophene-3-carbonitrile], the IC50 in [1] is greater than 50 µM; in data set [2], greater than 50 µM; in [3] it was 115 ± 5.82 µM; in [5], greater than 50 µM. For the same compound, the antileishmanial activity result with Leishmania is on record as “showed antileishmanial activity”. In addition, the LD50 in [4] is greater than 5000 mg/kg. In addition, the “death in acute toxicity assay” value with Swiss albino mice (single dose 300 mg/kg i.p., test repeated) was “no death”; in the data set on Swiss albino mice (single dose 2000 mg/kg i.p., carried out twice), “did not induce death”. In addition, the nitrite concentration with nitrite (nitric oxide) came out at 188.5 ± 7.98 µM. Besides, the AChE activity in data set [6] (10 µM) worked out at 85.67 ± 0.11; in data set [6] (20 µM) it was 94.59 ± 0.20; in data set [6] (40 µM) it was 94.54 ± 0.10.
